The source of these data is US20250201957A1, “SEPARATION RECOVERY METHOD OF METAL IONS AND ACIDIC METAL EXTRACTANT” (FUJIFILM Corporation, priority 2022, published 2025).

The pKa is the pH at which an ionisable group is half protonated.

The first data set in a line: pKa of metal extractant by neutralization titration. In kind it is physicochemical.
Settings: not given
An excerpt: The acidic metal extractant includes two or more coordinating functional groups, and at least one of the coordinating functional groups includes a carboxy group or each of acidic coordinating functional groups where one of R^C's represents a hydrogen atom. In the present invention, the acidic metal extractant is an acidic metal extractant for dissociating hydrogen ions (H^+) and can be defined by an acid dissociation constant pKa. For example, an acidic metal extractant having pkA of 0.1 to 12 is preferable, an acidic metal extractant having pkA of 0.5 to 12 is more preferable, and an acidic metal extractant having pkA of 1 to 8 is still more preferable. In the present invention, the pKa is a value measured by neutralization titration.
Regarding the synthesized or prepared acidic metal extractant, the molecular weight and the pKa calculated using the above-described method are shown in Table 1-2.
On to `CCCCC(CC)COP(=O)(CP(=O)(OCC)OCC(CC)CCCC)OCC` (stereo not shown) [E-7], for which the pKa entry is “None”.

Regarding “Versatic acid 10 [VA-10, reference compound]”, the pKa came out at 7.9.

The same data set, now with this note: read-out: pKa.
Consider `CCCCC(CC)COP(=O)(O)CCCP(=O)(O)OCC(CC)CCCC` (stereo not shown) [E-1], for which the pKa was 1.1.

On to `CCCCC(CC)COP(=O)(O)CP(=O)(O)OCC(CC)CCCC` (stereo not shown) [E-2], for which the pKa was 0.8.

As for `CCCCC(CC)COP(=O)(O)CP(=O)(OCC)OCC(CC)CCCC` (stereo not shown) [E-3], the pKa came to 2.1.

On to `CCCCC(CC)CC(CC(CC)CCCC)(C(=O)O)C(=O)O` (stereo not shown) [E-4], for which the pKa came to 6.5.

`CCCCC(CC)COP(=O)(O)CCP(=O)(O)OCC(CC)CCCC` (stereo not shown) [E-5]: the pKa was found to be 0.9.

`CCCCCCCCOP(=S)(S)CP(=S)(S)OCCCCCCCC` (stereo not shown) [E-6]: the pKa was 0.3.

For `CCCCC(CC)COP(=O)(O)C(C)(O)P(=O)(O)OCC(CC)CCCC` (stereo not shown) [E-8], the pKa stood at 1.1.

As to `CCCCC(CC)COP(=O)(O)CC(CC)CCCC` (stereo not shown) [PC-88A, mono-2-ethylhexyl (2-Ethylhexyl)phosphonate, reference compound], the pKa is 4.6.
